We go through 3 molecules from ChEMBL document CHEMBL6134832, “Expanding the utilization of binding pockets proves to be effective for noncovalent small molecule inhibitors against SARS-CoV-2 Mpro” (Eur J Med Chem, 2025).

The source made the active and inactive calls. The calls are words filed in the database; no cut-off is given here.

What all share (assay type): functional, organism-based
The test system of test [1] is SARS-CoV-2. Put plainly: Antiviral activity against SARS-CoV-2 omicron BA.5 variant infected in K18-hACE2 transgenic mouse model assessed as septal thickening in lung at 40 to 80 mg/kg, po pretreated for 2 hrs followed by viral infection and measured on 2 dpi. Conditions: Severe acute respiratory syndrome coronavirus 2, dose 40-80 mg/kg, time 50.0 hrs.
Test [2] concerns SARS-CoV-2. Put plainly: Antiviral activity against SARS-CoV-2 omicron BA.5 variant infected in po dosed K18-hACE2 transgenic mouse model assessed as reduction in viral RNA loads in lung pretreated for 2 hrs followed by viral infection and measured on 2 dpi. Conditions: Severe acute respiratory syndrome coronavirus 2, time 50.0 hrs.
The subject of test [3] is SARS-CoV-2. Put plainly: Antiviral activity against SARS-CoV-2 omicron BA.5 variant infected in K18-hACE2 transgenic mouse model assessed as inflammatory cell infiltration in lung at 40 to 80 mg/kg, po pretreated for 2 hrs followed by viral infection and measured on 2 dpi. Conditions: Severe acute respiratory syndrome coronavirus 2, dose 40-80 mg/kg, time 50.0 hrs.
The test system of test [4] is SARS-CoV-2. Put plainly: Antiviral activity against SARS-CoV-2 omicron BA.5 variant infected in K18-hACE2 transgenic mouse model assessed as reduction in viral titers in lung at 20 to 80 mg/kg, po pretreated for 2 hrs followed by viral infection and measured on 2 dpi. Conditions: Severe acute respiratory syndrome coronavirus 2, dose 20-80 mg/kg, time 50.0 hrs.
Test [5] concerns SARS-CoV-2. Put plainly: Antiviral activity against SARS-CoV-2 omicron BA.5 variant infected in K18-hACE2 transgenic mouse model assessed as reduction in viral RNA loads in lung at 80 mg/kg, po pretreated for 2 hrs followed by viral infection and measured on 2 dpi. Conditions: Severe acute respiratory syndrome coronavirus 2, time 50.0 hrs.
The test system of test [6] is SARS-CoV-2. Put plainly: Antiviral activity against SARS-CoV-2 omicron BA.5 variant infected in K18-hACE2 transgenic mouse model assessed as reduction in degree of damage at 20 mg/kg, po pretreated for 2 hrs followed by viral infection and measured on 2 dpi. Conditions: Severe acute respiratory syndrome coronavirus 2, time 50.0 hrs.
The test system of test [7] is SARS-CoV-2. Put plainly: Antiviral activity against SARS-CoV-2 omicron BA.5 variant infected in K18-hACE2 transgenic mouse model assessed as reduction in disease severity at 20 mg/kg, po pretreated for 2 hrs followed by viral infection and measured on 2 dpi. Conditions: Severe acute respiratory syndrome coronavirus 2, time 50.0 hrs.
In test [8] the test system is SARS-CoV-2. Put plainly: Antiviral activity against SARS-CoV-2 omicron BA.5 variant infected in K18-hACE2 transgenic mouse model assessed as inflammatory cell infiltration in lung at 90 mg/kg, po pretreated for 2 hrs followed by viral infection and measured on 2 dpi. Conditions: Severe acute respiratory syndrome coronavirus 2, time 50.0 hrs.
Test [9] concerns SARS-CoV-2. Put plainly: Antiviral activity against SARS-CoV-2 omicron BA.5 variant infected in K18-hACE2 transgenic mouse model assessed as reduction in degree of damage at 15 to 30 mg/kg, po pretreated for 2 hrs followed by viral infection and measured on 2 dpi. Conditions: Severe acute respiratory syndrome coronavirus 2, dose 15-30 mg/kg, time 50.0 hrs.
Test [10] deals with SARS-CoV-2. Put plainly: Antiviral activity against SARS-CoV-2 omicron BA.5 variant infected in K18-hACE2 transgenic mouse model assessed as reduction in viral titers in lung at 15 to 90 mg/kg, po pretreated for 2 hrs followed by viral infection and measured on 2 dpi. Conditions: Severe acute respiratory syndrome coronavirus 2, dose 15-90 mg/kg, time 50.0 hrs.
For test [11], the system named is SARS-CoV-2. Put plainly: Antiviral activity against SARS-CoV-2 omicron BA.5 variant infected in K18-hACE2 transgenic mouse model assessed as septal thickening in lung at 90 mg/kg, po pretreated for 2 hrs followed by viral infection and measured on 2 dpi. Conditions: Severe acute respiratory syndrome coronavirus 2, time 50.0 hrs.
Test [12] concerns SARS-CoV-2. Put plainly: Antiviral activity against SARS-CoV-2 omicron BA.5 variant infected in K18-hACE2 transgenic mouse model assessed as reduction in disease severity at 15 to 30 mg/kg, po pretreated for 2 hrs followed by viral infection and measured on 2 dpi. Conditions: Severe acute respiratory syndrome coronavirus 2, dose 15-30 mg/kg, time 50.0 hrs.
Test [13] concerns SARS-CoV-2. Put plainly: Antiviral activity against SARS-CoV-2 omicron BA.5 variant infected in K18-hACE2 transgenic mouse model assessed as septal thickening in lung at 40 mg/kg, po pretreated for 2 hrs followed by viral infection and measured on 2 dpi. Conditions: Severe acute respiratory syndrome coronavirus 2, time 50.0 hrs.
The subject of test [14] is SARS-CoV-2. Put plainly: Antiviral activity against SARS-CoV-2 omicron BA.5 variant infected in K18-hACE2 transgenic mouse model assessed as reduction in viral titers in lung at 30 mg/kg, po pretreated for 2 hrs followed by viral infection and measured on 2 dpi. Conditions: Severe acute respiratory syndrome coronavirus 2, time 50.0 hrs.
For test [15], the system named is SARS-CoV-2. Put plainly: Antiviral activity against SARS-CoV-2 omicron BA.5 variant infected in K18-hACE2 transgenic mouse model assessed as inflammatory cell infiltration in lung at 40 mg/kg, po pretreated for 2 hrs followed by viral infection and measured on 2 dpi. Conditions: Severe acute respiratory syndrome coronavirus 2, time 50.0 hrs.
Test [16] deals with SARS-CoV-2. Put plainly: Antiviral activity against SARS-CoV-2 omicron BA.5 variant infected in K18-hACE2 transgenic mouse model assessed as reduction in viral RNA loads in lung at 30 mg/kg, po pretreated for 2 hrs followed by viral infection and measured on 2 dpi. Conditions: Severe acute respiratory syndrome coronavirus 2, time 50.0 hrs.

For `Cn1cc2cc(/N=c3\[nH]c(=O)n(-c4cccnc4)c(=O)n3Cc3cc(F)c(F)cc3F)c(Cl)cc2n1`, the outcome in test [1], in [4], in test [5], in [6] and in test [7] was Active. Also, the Activity entry in test [2] was “Dose-dependent-effect”; in test [3], “Mild_effect”.

On to `Cc1ccc(C#N)cc1Cn1c(=O)n(-c2cncc(SC3CC3)c2)c(=O)[nH]/c1=N\c1cc2cn(C)nc2cc1Cl`, for which the Activity result in [8] is “Mild_effect”; in test [2], “Dose-dependent-effect”. Moreover, the outcome in [9], in [10], in [11] and in test [12] was Active.

Regarding `Cn1cnc(Cn2c(=O)[nH]/c(=N\c3cc4cn(C)nc4cc3Cl)n(Cc3cc(F)c(F)cc3F)c2=O)n1`, the results for the Activity entry in [2] and in test [15] were “Dose-dependent-effect” and “Mild_effect”, respectively. The outcome in test [13], in test [14] and in test [16] was Active.
